Drawing on ChEMBL document CHEMBL1158238, “New prenylflavones from the leaves of Epimedium saggitatum” (J Nat Prod, 1996), this text covers IC50 for 2 compounds.

The test system of the experiment is Platelet. Put plainly: Inhibition of arachidonic acid-induced platelets aggregation by turbidimetry. Type of experiment: functional, cell-based.

SMILES strings stand for the structures.

For orientation: IC50 means the concentration needed to halve the response being measured. A higher IC50 goes with a need for much substance.

For `C=C(C)C(O)Cc1cc(-c2cc(=O)c3c(O)cc(O)cc3o2)cc2c1OC(C)(C)C=C2` (configuration not stated) [YINYANGHUO A], the IC50 was 7.14 µM.

Compound `C=C(C)C(O)Cc1cc(-c2cc(=O)c3c(O)cc(O)cc3o2)cc(CC=C(C)C)c1O` (configuration not stated) [YINYANGHUO B] registered a half-inhibitory concentration (IC50) of 1.67 µM.
